Experimental data published in patent publication US20110086035A1, “IMMUNOTHERAPEUTIC METHODS AND MOLECULES” (priority 2008, published 2011).
Where two headings read alike, the source gives them in different places.

How the values were obtained:
[1] = test system: Asp f16-specific T cell lines of HLA-DRB1*04-positive donors; test: Restimulation of Asp f16-specific T cell lines with peptide-pulsed autologous monocytes, IFN-γ ELISA; assay type: cell-based, human; settings: T cell lines of 3 HLA-DRB1*04-positive donors; monocytes pulsed with 1 μg/ml peptide; 24 h; FIG. 2B
Description: (§1) Antigen-specific T cell lines were generated by incubation of 1×10^7 whole PBMC per well in 6-well cell culture plates with 5 μg/ml recombinant protein or 1 μg/ml peptide antigen for 7 days. Lymphocyte cultures were supplemented with 5 U/ml IL-2 (Proleukin, Chiron, Ratingen, Germany) every other day and culture medium replenished as needed.
(§2) Autologous monocytes were isolated from whole PBMC by allowing cells to adhere to tissue culture dishes for 2 hours and subsequent extensive washing to remove non-adherent cells. For presentation of protein antigen, monocytes were cultured overnight in the presence of 5 μg/ml recombinant protein and harvested by mechanical abrasion the next day. For presentation of peptide antigen, monocytes were incubated overnight without antigen and mature cells harvested and pulsed with 1 μg/ml peptide antigen for 1 hour. Transduced autologous B cells were used as antigen-presenting cells (APC) after repeated culture on gamma-irradiated human CD40L-transfected feeder cells. […]
(§3) In order to define a common MHC class II epitope of the Asp f16 protein, lymphocyte donors were screened for the expression of the most abundant MHC class II allele HLA-DRB1*04 and Asp f16-specific T cell lines generated as described. […] All T cell cultures were then exposed to both peptide and recombinant protein for 24 hours and IFN-γ production quantified.

[2] = test system: PBMC from HLA-DRB1*04-positive donors; test: Criss-cross restimulation of T cell lines generated with FHT peptide or recombinant Asp f16 protein, IFN-γ; assay type: cell-based, human; settings: lines generated for one week with peptide or protein, exposed to both for 24 hours; FIG. 2C
Description: as §1, §2, §3

[3] = test system: FHT-specific CD4+ T cell clones; test: Restimulation of FHT-specific CD4+ T cell clones with antigen-loaded dendritic cells, IFN-γ ELISA; assay type: cell-based, human
Description: For generation of antigen-specific T cell clones PBMC were stimulated repeatedly with 1 μg/ml FHT peptide once weekly for 4 weeks. Subsequently T cell clones were generated by limiting dilution in 96-well plates and expanded using the rapid expansion protocol as described by Beck et al^14. A CMVpp65-specific CD4^+ T cell clone used in control experiments was generated accordingly by limiting dilution of T cells stimulated with pp65 peptide antigen (kindly provided by Jan Diekmann).
(§4) Dendritic cells (DC) were generated from monocytes by addition of 500 U/ml GM-CSF (PromoCell, Heidelberg, Germany) and 700 U/ml IL-4 (R&D systems, Wiesbaden-Nordenstadt, Germany) to the culture medium. Immature dendritic cells were incubated for 24 hours with either live A. fumigatus or C. albicans conidia or fungus killed by treatment with ethanol 0, 4, 8 or 12 hours after germination and subsequently co-incubated, with Aspergillus peptide-specific T cell clones for further 24 hours. Dendritic cells used for presentation of protein or peptide antigen were induced to mature by addition of 25 ng/ml TNF-α, 5 ng/ml IL-1β, 10 ng/ml IL-6 (all R&D systems, Wiesbaden-Nordenstadt, Germany) and 1 μg/ml PGE2 (Pharmacia, Ratingen, Germany) prior to antigen-pulsing and co-incubation with antigen-specific T cells. […]

HLA-DRB1*04 = test: Binding to HLA-DRB1*04; parameters: species or system human
From the text: Whether or not a peptide binds to HLA-DRB1*04 may be determined using any method known in the art. A suitable method is shown in Example 1, with particular reference to FIG. 2B. One method is to introduce the peptide into PBMCs taken from an HLA-DRB1*04 human and determine whether an activating or proliferative response is obtained which is indicative of binding. Binding to HLA-DRB1*04 may also be assessed using the methods described in FIGS. 7 and 8.
(§5) Using limiting dilution, individual T cell clones were generated. Following expansion, the clones were either left un-stimulated, stimulated with FHT peptide or stimulated with HLA restricted FHT loaded LCL. IFNg production was then measured in a standard ELISA.

T cells specific for FHT = test: DRB1*0401/FHT multimer staining of FHT-expanded cell lines; assay type: cell-based, human; settings: PBMC of 3 donors (two DRB1*0401, one DRB1*0408) expanded 14 or 21 days; FHT bound to multimer of DRB1*0401; FIG. 7
From the text: FIG. 7. Cell lines expanded using the FHT peptide contain T cells that bind specifically to the FHT peptide in the context of DRB1*0401. PBMC from 3 different donors were expanded with the FHT peptide for 14 or 21 days (IVS—In vitro stimulation). Two of the donors were DRB1*0401 positive and one was DRB1*0408 positive.
PBMC from 3 different donors were expanded with the FHT peptide for 14 or 21 days (IVS—In vitro stimulation). Two of the donors were DRB1*0401 positive and one was DRB1*0408 positive.

T cell clones = test: IFNg ELISA of T cell clones stimulated with FHT peptide or FHT loaded HLA restricted LCL; assay type: cell-based, human; settings: in all but one of the clones; FIG. 8
Description: FIG. 8. […] Using limiting dilution, individual T cell clones were generated. Following expansion, the clones were either left un-stimulated, stimulated with FHT peptide or stimulated with HLA restricted FHT loaded LCL. IFNg production was then measured in a standard ELISA.
as §5

A. fumigatus conidia = test: Confrontation assay: killing of A. fumigatus conidia by monocytes pre-incubated with T cell supernatant; assay type: cell-based, Aspergillus fumigatus; settings: monocytes pre-incubated with supernatant of T cell clones activated with FHT peptide-pulsed APC; 3 hours; FIG. 5
Description: as §4, with “cells. In one experiment the antigen-presenting dendritic cells fed with live Aspergillus conidia were incubated with either 25 μg/ml control antibody or MHC class II blocking antibody (No 555556, BD Biosciences, Heidelberg, Germany) for 1 hour prior to addition of the T cells. Antibody also remained present during the 24 hours co-incubation of T cells with antigen-presenting DC.” for “cells.”
Killing of A. fumigatus conidia by monocytes was quantified using confrontation assays. […] Each experimental setting was determined in quadruple. […] Colonies were quantified after incubation at 37° C. over night. […]

PBMC from healthy donors = test: Restimulation of T cell lines generated with recombinant protein, IFN-γ ELISA; assay type: cell-based, human; settings: PBMC of 4 healthy donors; significant = at least 50 pg/ml and/or more than 5-fold increase over unstimulated; FIG. 1A/1B
Description: Blood was obtained from HLA-DRB1*-typed healthy donors after informed consent. Peripheral blood mononuclear cells (PBMC) were isolated via centrifugation in Biocoll Separating Solution (Biochrom, Berlin, Germany) and either used directly after preparation or cryopreserved for later use. Cells were cultured in RPMI 1640 with L-Glutamine (Invitrogen, Karlsruhe, Germany), supplemented with 10% heat-inactivated, pooled human serum and 100 U/ml Penicillin-Streptomycin (Invitrogen, Karlsruhe, Germany).
as §1
Autologous monocytes were isolated from whole PBMC by allowing cells to adhere to tissue culture dishes for 2 hours and subsequent extensive washing to remove non-adherent cells. […]
PBMC from 4 different healthy donors, were stimulated for 7 days with purified recombinant Asp f1-H136L or Asp f16 protein. The generated T cell lines were then re-exposed for 24 hours to both proteins and the amount of secreted IFN-γ quantified in the supernatant by IFN-γ ELISA. […]

phoenix GALV = assay type: cell-based, human; settings: point mutation His136Leu versus Asp f1
From the text: The gene encoding the A. fumigatus Asp f16 protein (NCBI accession number AY169706) was cloned into the eukaryotic expression vector pcDNA3.1-TOPO (Invitrogen, Karlsruhe, Germany) with N- and C-terminal FLAG®-Tag (Sigma-Aldrich, Muenchen, Germany). The gene was amplified from cDNA kindly provided by Utz Reichard (University of Goettingen, Germany). The gene encoding Asp f1 protein (NCBI accession number M83781) was cloned accordingly, omitting the leader sequence (cDNA kindly provided by Prof. Dr. Stefan Stevanović, University of Tuebingen, Germany).
pcDNA3.1-aspf16-FLAG and pcDNA3.1-aspf1-H136L-FLAG expression vector was introduced into the transgenic human cell line phoenix GALV^20 via calcium phosphate transfection. Parental as well as transfected producer cells were cultivated in DMEM medium (Invitrogen, Karlsruhe, Germany) supplemented with 10% heat-inactivated fetal calf serum (FCS, Biochrom, Berlin, Germany) and 100 U/ml Penicillin-Streptomycin (Invitrogen, Karlsruhe, Germany). 24 hours after transfection transgene expression from the CMV promoter of the expression vector was enhanced by addition of 1 mM sodium butyrate (Sigma-Aldrich, Muenchen, Germany) to the culture medium^21.
Recombinant Asp f1 and Asp f16 proteins were produced in a eukaryotic expression system and purified by standard methods via introduced FLAG-Tags. […]

FHTYTIDWTKDAVTW [FHT peptide]
IFN-γ production in response to peptide [1]: abundant production of IFN-γ
specific cytokine (IFN-γ) production after restimulation with peptide and recombinant protein [2]: specific cytokine production could be detected
IFN-γ production of FHT-specific CD4+ T cell clones in response to DC ([3]; autologous DC pulsed with synthetic peptide, 24 h, FIG. 3A): high amounts of IFN-γ
binding to HLA-DRB1*04 (HLA-DRB1*04): has been shown to bind to HLA-DRB1*04
binding to HLA-DRB1*04 (HLA-DRB1*04; listed as FHT): specifically binds HLADRB1*04
detection of FHT specific T cells by multimer staining (T cells specific for FHT): can be detected by DRB1*0401/FHT multimer staining
IFNg production with FHT loaded HLA restricted LCL compared to peptide alone (T cell clones): greatly increased specific cytokine production
fungal survival after phagocytosis by monocytes (A. fumigatus conidia): significantly reduce fungal survival

B1: recombinant Asp f1-H136L protein: FLAG-tagged recombinant A. fumigatus Asp f1 ribotoxin with point mutation His136Leu, without leader sequence (protein, UniProt P67875 28-176, looked up, variant H136L)
Ribonuclease mitogillin: ATWTCINQQLNPKTNKWEDKRLLYSQAKAESNSHHAPLSDGKTGSSYPHWFTNGYDGNGKLIKGRTPIKFGKADCDRPPKHSQNGMGKDDHYLLEFPTFPDGHDYKFDSKKPKEDPGPARVIYTYPNKVFCGIVALQRGNQGDLRLCSH
modifications: FLAG tag
IFN-γ after one week of stimulation and 24 h re-exposure to recombinant protein (PBMC from healthy donors): only one of 4 donors responded robustly
cross-reactivity of Asp f16-specific CD4+ TH1 T cell clones to pulsed APC ([3]; APC pulsed with purified protein): not cross-reactive
cytotoxicity in the producing cell line (phoenix GALV): nearly abolished cytotoxicity
